Results from article PMC8388771, “Cationic Peptidomimetic Amphiphiles Having a N-Aryl- or N-Naphthyl-1,2,3-Triazole Core Structure Targeting Clostridioides (Clostridium) difficile: Synthesis, Antibacterial Evaluation, and an In Vivo C. difficile Infection Model” (Antibiotics, 2021).
Converted amounts (≈) assume the structure as drawn.

How the values were obtained:
human erythrocytes = assay: Hemolysis assay, HC50 determination; assay type: cell-based
Procedure: Hemolysis assay (human erythrocytes)–HC50 determination. These were performed as described previously.

E. faecalis ATCC 29212 = assay: Primary MIC assay, E. faecalis ATCC 29212; assay type: cell-based, Enterococcus faecalis; settings: Enterococcus faecalis, ATCC29212; Table 1; read-out: MIC E. faecalis ATCC 29212
Procedure: (§1) The N-arytriazole and N-naphthyltriazole peptidomimetics were subjected to antimicrobial screening. […] Vancomycin, colistin, fluconazole, and tamoxifen were used as positive controls (see Table 1 for details).
(§2) Primary screening (Gram-positive bacteria). Primary MIC assays were performed as described by the Clinical and Laboratory Standards Institute for aerobic and anaerobic bacteria. MIC values for vancomycin were within acceptable QC ranges.

[1] = tested on: K. pneumoniae ATCC 700603; assay: CO-ADD MIC assay, K. pneumoniae ATCC 700603; assay type: cell-based; settings: for MIC: Klebsiella pneumoniae, ATCC700603, Table S1, multi-drug resistant
Excerpt: as §1
(§3) Secondary screening (MRSA and Gram-negative bacteria) and cytotoxicity assay–performed by the Community for Open Antimicrobial Drug Discovery (CO-ADD). Samples were provided to CO-ADD [29] for antimicrobial screening by whole cell growth inhibition assays.
(§4) Bacterial Inhibition–MIC Assay. These were performed as described previously.

C. albicans ATCC 90028 = assay: CO-ADD MIC assay, C. albicans ATCC 90028; assay type: cell-based; settings: Candida albicans, ATCC90028, Table S1
Excerpt: as §1, §3

S. aureus NCTC 10442 = assay: Primary MIC assay, S. aureus NCTC 10442 (MRSA); assay type: cell-based; settings: Staphylococcus aureus; Table 1; MRSA; read-out: MIC S. aureus NCTC 10442
Procedure: as §1, §2

S. pneumoniae ATCC 49619 = assay: Primary MIC assay, S. pneumoniae ATCC 49619; assay type: cell-based, Streptococcus pneumoniae; settings: Streptococcus pneumoniae, ATCC49619; Table 1; read-out: MIC S. pneumoniae ATCC 49619
Procedure: as §1, §2

E. coli ATCC 25922 [2] = assay: Primary MIC assay, E. coli ATCC 25922; assay type: cell-based; settings: Table 1; for MIC: Escherichia coli, ATCC25922, read-out: MIC E. coli ATCC 25922
E. coli ATCC 25922 [3] = assay: CO-ADD MIC assay, E. coli ATCC 25922; assay type: cell-based; settings: for MIC: Escherichia coli, ATCC25922, Table S1
Excerpt: as §1, §3, §4

C. difficile 132 (RT027) = assay: Primary MIC assay, C. difficile 132 (RT027); assay type: cell-based, Clostridioides difficile; settings: Clostridioides difficile; Table 1; read-out: MIC C. difficile 132 (RT027)
Procedure: as §1, §2

[4] = tested on: Cryptococcus neoformans var. grubii ATCC 208821; assay: CO-ADD MIC assay, C. neoformans var. grubii ATCC 208821; assay type: cell-based; settings: for MIC: Cryptococcus neoformans, ATCC208821, Table S1
Excerpt: as §1, §3

P. aeruginosa ATCC 27853 = assay: CO-ADD MIC assay, P. aeruginosa ATCC 27853; assay type: cell-based; settings: for MIC: Pseudomonas aeruginosa, ATCC27853, Table S1
Excerpt: as §1, §3, §4

A. baumannii ATCC 19606 = assay: CO-ADD MIC assay, A. baumannii ATCC 19606; assay type: cell-based; settings: for MIC: Acinetobacter baumannii, ATCC19606, Table S1
Excerpt: as §1, §3, §4

S. aureus ATCC 43300 = assay: CO-ADD MIC assay, S. aureus ATCC 43300 (MRSA); assay type: cell-based; settings: Staphylococcus aureus, Table S1; MRSA; CO-ADD; read-out: MIC S. aureus ATCC 43300
Excerpt: as §1, §3, §4

S. aureus ATCC 29213 = assay: Primary MIC assay, S. aureus ATCC 29213; assay type: cell-based; settings: Staphylococcus aureus, ATCC29213; Table 1; read-out: MIC S. aureus ATCC 29213
Procedure: as §1, §2

[5] = Cytotoxicity (CC50) assay by CO-ADD; assay type: cell-based, human; settings: human, HEK293 cells (ATCC CRL-1573); Table 1; cytotoxicity on HEK293 cells, tested at ≤32 µg/mL
Excerpt: as §1, §3
Cytotoxicity Assay. These were performed as described previously.

C. difficile ATCC 700057 = assay: Primary MIC assay, C. difficile ATCC 700057; assay type: cell-based, Clostridioides difficile; settings: Clostridioides difficile, ATCC700057; Table 1; read-out: MIC C. difficile ATCC 700057
Procedure: as §1, §2

[6] = Table 1, lysis of human erythrocytes
[7] = Table S1, footnote says lysis of sheep erythrocytes

CC(C)CCc1cn(-c2ccccc2OCC(=O)N[C@H](CCCNC(=N)N)Cn2cc(C3CCCC3)nn2)nn1.Cl [Compound 11]
HC50 (human erythrocytes; [6]): >32 µg/mL
HC50 (human erythrocytes; [7]): > 32 µg/mL
MIC (E. faecalis ATCC 29212): 32 µg/mL
MIC [1]: > 32 µg/mL
MIC (C. albicans ATCC 90028): > 32 µg/mL
MIC (S. aureus NCTC 10442): 32 µg/mL
MIC (S. pneumoniae ATCC 49619): 16 µg/mL
MIC (E. coli ATCC 25922 [2]): 128 µg/mL
MIC (E. coli ATCC 25922 [3]): > 32 µg/mL
MIC (C. difficile 132 (RT027)): 64 µg/mL
MIC [4]: 32 µg/mL
MIC (P. aeruginosa ATCC 27853): > 32 µg/mL
MIC (A. baumannii ATCC 19606): > 32 µg/mL
MIC (S. aureus ATCC 43300): 32 µg/mL
MIC (S. aureus ATCC 29213): 32 µg/mL
CC50 [5]: > 32 µg/mL
MIC (C. difficile ATCC 700057): 32 µg/mL

CC(C)CCOc1ccccc1-n1nncc1COCC(=O)N[C@H](CCCCN)C(=O)N[C@H](CCCNC(=N)N)Cn1cc(C2CCCCC2)nn1 [Compound 48]
HC50 (human erythrocytes; [6]): 24.5 µg/mL
HC50 (human erythrocytes; [7]): 24.5 µg/mL
MIC (E. faecalis ATCC 29212): > 32 µg/mL
MIC [1]: > 32 µg/mL
MIC (C. albicans ATCC 90028): > 32 µg/mL
MIC (S. aureus NCTC 10442): > 32 µg/mL
MIC (S. pneumoniae ATCC 49619): > 32 µg/mL
MIC (E. coli ATCC 25922 [2]): > 32 µg/mL
MIC (E. coli ATCC 25922 [3]): > 32 µg/mL
MIC (C. difficile 132 (RT027)): > 32 µg/mL
MIC [4]: > 32 µg/mL
MIC (P. aeruginosa ATCC 27853): > 32 µg/mL
MIC (A. baumannii ATCC 19606): > 32 µg/mL
MIC (S. aureus ATCC 43300): > 32 µg/mL
MIC (S. aureus ATCC 29213): > 32 µg/mL
CC50 [5]: > 32 µg/mL
MIC (C. difficile ATCC 700057): > 32 µg/mL

CC(C)CCc1cnnn1-c1c(OCC(=O)N[C@H](CCCCN)C(=O)N[C@H](CCCNC(=N)N)Cn2cc(CC3CCCCC3)nn2)ccc2ccccc12 [Compound 44]
HC50 (human erythrocytes; [6]): >32 µg/mL
HC50 (human erythrocytes; [7]): > 32 µg/mL
MIC (E. faecalis ATCC 29212): 16 µg/mL (≈ 21.1 µM)
MIC [1]: > 32 µg/mL
MIC (C. albicans ATCC 90028): 32 µg/mL (≈ 42.3 µM)
MIC (S. aureus NCTC 10442): 4 µg/mL (≈ 5.28 µM)
MIC (S. pneumoniae ATCC 49619): 4 µg/mL (≈ 5.28 µM)
MIC (E. coli ATCC 25922 [2]): 64 µg/mL (≈ 84.5 µM)
MIC (E. coli ATCC 25922 [3]): 32 µg/mL (≈ 42.3 µM)
MIC (C. difficile 132 (RT027)): 32 µg/mL (≈ 42.3 µM)
MIC [4]: 4 to 8 µg/mL (≈ 5.28 to 10.6 µM)
MIC C. neoformans var. grubii ATCC 208821 ([4]; Table S1): 8 µg/mL (≈ 10.6 µM)
MIC (P. aeruginosa ATCC 27853): 32 µg/mL (≈ 42.3 µM)
MIC (A. baumannii ATCC 19606): 32 µg/mL (≈ 42.3 µM)
MIC (S. aureus ATCC 43300): 8 µg/mL (≈ 10.6 µM)
MIC (S. aureus ATCC 29213): 8 µg/mL (≈ 10.6 µM)
CC50 [5]: > 32 µg/mL
MIC (C. difficile ATCC 700057): 32 µg/mL (≈ 42.3 µM)

Cl.Cl.N=C(N)NCCC[C@H](Cn1cc(Cc2ccccc2)nn1)NC(=O)[C@@H](CCCCN)NC(=O)COc1ccccc1-c1cn(Cc2ccccc2)nn1 [Compound 46]
HC50 (human erythrocytes; [6]): >32 µg/mL
HC50 (human erythrocytes; [7]): > 32 µg/mL
MIC (E. faecalis ATCC 29212): 64 µg/mL
MIC [1]: > 32 µg/mL
MIC (C. albicans ATCC 90028): 32 µg/mL
MIC (S. aureus NCTC 10442): 32 µg/mL
MIC (S. pneumoniae ATCC 49619): 16 µg/mL
MIC (E. coli ATCC 25922 [2]): 128 µg/mL
MIC (E. coli ATCC 25922 [3]): > 32 µg/mL
MIC (C. difficile 132 (RT027)): 128 µg/mL
MIC (P. aeruginosa ATCC 27853): > 32 µg/mL
MIC (A. baumannii ATCC 19606): > 32 µg/mL
MIC (S. aureus ATCC 43300): 16 µg/mL
MIC (S. aureus ATCC 29213): 32 µg/mL
CC50 [5]: > 32 µg/mL
MIC (C. difficile ATCC 700057): 128 µg/mL

CC(C)CCc1cnnn1-c1c(OCC(=O)N[C@H](CCCCN)C(=O)N[C@H](CCCNC(=N)N)Cn2cc(Cc3ccccc3)nn2)ccc2ccccc12.Cl.Cl [Compound 45]
HC50 (human erythrocytes; [6]): >32 µg/mL
HC50 (human erythrocytes; [7]): > 32 µg/mL
MIC (E. faecalis ATCC 29212): 64 µg/mL
MIC [1]: > 32 µg/mL
MIC (C. albicans ATCC 90028): > 32 µg/mL
MIC (S. aureus NCTC 10442): 16 µg/mL
MIC (S. pneumoniae ATCC 49619): 4 µg/mL
MIC (E. coli ATCC 25922 [2]): 128 µg/mL
MIC (E. coli ATCC 25922 [3]): 32 µg/mL
MIC (C. difficile 132 (RT027)): 128 µg/mL
MIC (P. aeruginosa ATCC 27853): 32 µg/mL
MIC (A. baumannii ATCC 19606): > 32 µg/mL
MIC (S. aureus ATCC 43300): 16 µg/mL
MIC (S. aureus ATCC 29213): 16 µg/mL
CC50 [5]: > 32 µg/mL
MIC (C. difficile ATCC 700057): 128 µg/mL

CC/C(=C(\c1ccccc1)c1ccc(OCCN(C)C)cc1)c1ccccc1 [tamoxifen, reference compound]
CC50 [5]: 13.1 µg/mL (≈ 35.3 µM)

colistin [reference compound]
MIC K. pneumoniae ATCC 700603 ([1]; Table S1, multi-drug resistant): 0.25 µg/mL
MIC E. coli ATCC 25922 (E. coli ATCC 25922 [2]): 0.125 µg/mL
MIC E. coli ATCC 25922 (E. coli ATCC 25922 [3]; Table S1): 0.125 µg/mL
MIC P. aeruginosa ATCC 27853 (P. aeruginosa ATCC 27853; Table S1): 0.25 µg/mL
MIC A. baumannii ATCC 19606 (A. baumannii ATCC 19606; Table S1): 0.25 µg/mL
